Experimental data from patent US5814488A (priority 1993, dated 1998).

How the values were obtained:
[1] = clinical use; cited from earlier work
[2] = Nephrotoxicity to rat after i.m. administration; details: gentamicin at 150 MKD and 100 MKD from seventh day
[3] = Ototoxicity to guinea pig: cochleatoxicity
[4] = test system: S. aureus; assay: Comparison of MIC and MBC (Tables 5 and 6); assay type: cell-based; details: S. aureus, 31 strains
Text: (§1) […]. […] […]

[5] = test system: Klebsiella pneumoniae; assay: Comparison of MIC and MBC (Tables 5 and 6); assay type: cell-based
Text: as §1

[6] = test system: Escherichia coli; assay: Comparison of MIC and MBC (Tables 5 and 6); assay type: cell-based
Text: as §1

[7] = test system: Pseudomonas sp.; assay: Comparison of MIC and MBC (Tables 5 and 6); assay type: cell-based; details: Pseudomonas sp.
Text: as §1

[8] = test system: Shigella; assay: Comparison of MIC and MBC (Tables 5 and 6); assay type: cell-based
Text: as §1

[9] = Table 5, 20 strains, unit assumed
[10] = Table 6, 20 strains, in µg/mL (unit assumed)
[11] = Table 6, 20 strains, unit assumed
[12] = Table 5, number 2, unit assumed
[13] = Table 5, 10 strains, unit assumed

Substance: Gentamicin
- side-effects [1]: side-effects of ototoxicity and nephrotoxicity
- dead animals [2]: gradually increased
- hair cell morphology ([3]; high dosage): large number of necrotized hair cell, even stand cell and nerve cell were observed
- auditory function ([3]; high dosages): nearly all the auditory function of the animals were lost
- hair cell morphology ([3]; low and middle dosages): scattered necrotized hair cell and scar formation were observed
- ABR threshold ([3]; middle dosages): increases of ABR threshold were observed
- MBC50 ([4]; Table 5, unit assumed): 0.5 µg/mL
- MBC90 ([4]; Table 5, unit assumed): 2 µg/mL
- MIC50 ([4]; Table 5, unit assumed): 0.125 µg/mL
- MIC90 ([4]; Table 5, unit assumed): 0.5 µg/mL
- MBC range ([4]; Table 6, in µg/mL (unit assumed)): 0.062
- MBC90 ([4]; Table 6, unit assumed): 2 µg/mL
- MBC50 [5, 9]: 0.25 µg/mL
- MBC90 [5, 9]: 1 µg/mL
- MIC50 [5, 9]: 0.125 µg/mL
- MIC90 [5, 9]: 0.25 µg/mL
- MBC range [5, 10]: 0.062-2
- MBC90 [5, 11]: 1 µg/mL
- MBC50 [6, 9]: 0.5 µg/mL
- MBC90 [6, 9]: 1 µg/mL
- MIC50 [6, 9]: 0.125 µg/mL
- MIC90 [6, 9]: 0.25 µg/mL
- MBC range [6, 10]: 0.125-8
- MBC90 [6, 11]: 1 µg/mL
- MBC50 [7, 12]: 2 µg/mL
- MBC90 [7, 12]: 8 µg/mL
- MIC50 [7, 12]: 2 µg/mL
- MIC90 [7, 12]: 4 µg/mL
- MBC range [7, 10]: 0.5-16
- MBC90 [7, 11]: 8 µg/mL
- MBC50 [8, 13]: 0.25 µg/mL
- MBC90 [8, 13]: 1 µg/mL
- MIC90 [8, 13]: 0.25 µg/mL
- MBC range ([8]; Table 6, 10 strains, in µg/mL (unit assumed)): 0.125-1
- MBC90 ([8]; Table 6, 10 strains, unit assumed): 1 µg/mL
